# Measured values reported in US10996215B2, “Methods for determining drug efficacy for the treatment of diffuse large B-cell lymphoma, multiple myeloma, and myeloid cancers” (CELGENE CORPORATION, priority 2013, dated 2021).
# What was measured:
# AML cell line (HNT-34) = experiment: tandem-mass-tagged proteomics of global cellular protein levels; format: cell-based, human; details: 10 micromolar
# Description: (§1) Samples were subjected to multiplexed quantitative mass spectrometry analysis. In particular, cell lysate was prepared from the samples, and was subjected to tandem protein digestion using LysC and trypsin, peptide labeling with either Tandem Mass Tag 6-plex or 10-plex reagents, and peptide fractionation. Multiplexed quantitative mass spectrometry data were collected on an Orbitrap Fusion mass spectrometer operating in a MS3 mode using synchronous precursor selection for the MS2 to MS3 fragmentation. MS/MS data were searched against a Uniprot human database with both the forward and reverse sequences using the SEQUEST algorithm. Additional data processing steps included controlling peptide and protein level false discovery rates, assembling proteins from peptides, and protein quantification from peptides. Each drug-treated sample has 3 replicates, each DMSO sample has 4 replicates.
# (§2) T is the statistic calculated for the t.test. P.value represents statistical significance for the test. Adj.P.value represents FDR multiple testing correction of the P.values in previous parameter. B log odds that the protein is differentially abundant between the conditions (compound vs control).
# [1] = system: del(5q) MDS cell line (MDS-L); experiment: as above; format: cell-based, human
# Description: as §1, §2
# [2] = system: Aiolos, Ikaros, IRF4, Cereblon; experiment: Western blot of Aiolos, Ikaros, IRF4, Cereblon in DLBCL cell lines; format: cell-based, human
# Description: Immunoblots were probed with antibodies recognizing: Aiolos, Ikaros, Cereblon, IRF4, c-myc, CD44, EZH2, EBF 1, PU. 1, and β-actin. Signals were detected with a LI-COR imager
# The following steps can be performed to harvest cells in preparation for Western Blot analysis. The steps are performed on ice and any centrifugation is performed in a 4° C. refrigerated centrifuge. RIPA lysis buffer (Pierce, cat #89900) is first prepared by adding […] proteinase inhibitors (Pierce, cat #78443) to 1 mL of RIPA buffer. Subsequently, cells are washed once in ice-cold phosphate buffered saline (PBS). The cells are then lysed with 0.25 mL RIPA lysis buffer. The PBMCs are placed on ice for 30 minutes and vortexed every 10 minutes. Lysates are frozen and stored at −80° C. prior to further processing.
# Lysates are placed in a QIAshredder® tube (QIAGEN, cat #79656) and spun down 30 sec, top speed (13200 rpm) in an Eppendorf benchtop centrifuge (Model 5415 R). The lysate is then transferred to a 1.5 mL clear Eppendorf tube and spun down 10 min at top speed. The supernatent is collected without disturbing the cell debris pellet. The supernatent is dry ice frozen and stored at −80° C. prior to analysis.
# The protein concentration in supernatent is measured using BCA assay and the expected protein yield is about 0.5-5 μg/μL, or 125-1250 μg total. Approximately ≥10 μg protein per lane is loaded for western blotting (IRF4, IKZF3, etc.) using antibodies against the human proteins.
# Membranes are immunblotted with anti-Aiolos (Santa Cruz Biotechnology, Dallas, Tex.), anti-Ikaros (Millipore, Billerica, Mass.) and anti-Actin (Sigma, St. Louis, Mo.; or LI-COR Biosciences, Lincoln, Nebr.) and secondary antibodies (LI-COR Biosciences, Lincoln, Nebr.). The blots are analyzed on Odyssey imager (LI-COR Biosciences, Lincoln, Nebr.).
# [3] = system: DLBCL cell lines (GCB and ABC); experiment: tritiated thymidine incorporation proliferation assay; format: cell-based
# Description: Cells were then cultured for 3 days at 37° C. Tritiated thymidine was applied to the cell culture for the final 6 hours and cells were then harvested onto filter plates. After the plates have dried, scintillation fluid was added to the plates and read on a Top-count reader.
# The cells were then analyzed for proliferation using a ^3H-thymidine incorporation assay.
# Proliferation was assessed through tritiated thymidine incorporation.
# ABC-DLBCL cell line = experiment: Tandem Mass Tag proteomics, lenalidomide vs Compound A; format: cell-based; details: ABC-DLBCL cell line; 10 uM; 24 h; vs DMSO
# Description: Cells were harvested and proteins were fractionated using a basic pH reverse gradient method. Fractionated samples were labeled using a Tandem Mass Tag method.
# IFN pathway = experiment: effect on IFN pathway (FIG. 13); format: cell-based
# HNT-34 = experiment: 4 d BrdU cell assay / tritiated thymidine, sensitivity; format: cell-based
# Description: (§3) Sensitivity to lenalidomide treatment in a panel of myeloid cancer cell lines was evaluated by tritiated thymidine and/or BrdU assays.
# MDS-L = experiment: as above; format: cell-based
# Description: as §3
# [4] = system: other myeloid cancer cell lines; experiment: 4 d BrdU cell assay, sensitivity; format: cell-based; details: other cell lines of the panel, predominantly insensitive
# Description: as §3
# CSNK1A1, Ikaros = experiment: Western analysis of BMMC or PBMC of lenalidomide-treated AML patients; format: in vivo; details: 50 mg daily
# Description: 3-5 μg total protein from each sample was evaludated for CSNK1A1, Ikaros, and GAPDH expressions by western analysis.
# CSNK1A1 (CK1α), Ikaros = experiment: MG-132, MLN-4924 or Compound A pre-treatment, Western analysis in HNT-34 cells; format: cell-based; details: 10 μM, 3 h or 6 h
smiles,measurement,setting,value
"Nc1cccc2c1CN(C1CCC(=O)NC1=O)C2=O (stereo not shown) [lenalidomide, 3-(4-amino-1-oxo-1,3-dihydro-isoindol-2-yl)-piperidine-2,6-dione]",log2FC CSNK1A1,AML cell line (HNT-34); 8 hours,−1.6
same,log2FC IKZF1,AML cell line (HNT-34); 8 hours,−2.1
same,log2FC CALM1,AML cell line (HNT-34); 24 hours,−1.1
same,log2FC CCNA2,AML cell line (HNT-34); 24 hours,−1.1
same,log2FC CSNK1A1,AML cell line (HNT-34); 24 hours,−1.4
same,log2FC IKZF1,AML cell line (HNT-34); 24 hours,−2.4
same,log2FC SERP1NH1,AML cell line (HNT-34); 24 hours,1.1
same,log2FC ZFP91,AML cell line (HNT-34); 24 hours,−1.4
same,log2FC ARHGAP18,AML cell line (HNT-34); 72 hours,1.0
same,log2FC CASS4,AML cell line (HNT-34); 72 hours,1.0
same,log2FC CORO1B,AML cell line (HNT-34); 72 hours,1.4
same,log2FC CSNK1A1,AML cell line (HNT-34); 72 hours,−1.5
same,log2FC DAB2,AML cell line (HNT-34); 72 hours,1.3
same,log2FC HSPB1,AML cell line (HNT-34); 72 hours,1.5
same,log2FC IKZF1,AML cell line (HNT-34); 72 hours,−2.4
same,log2FC ITM2C,AML cell line (HNT-34); 72 hours,−1.2
same,log2FC PPFIBP1,AML cell line (HNT-34); 72 hours,1.2
same,log2FC SERPINH1,AML cell line (HNT-34); 72 hours,1.7
same,log2FC ZFP91,AML cell line (HNT-34); 72 hours,−1.1
same,log2FC CSNK1A1,"[1]; 10 micromolar, 8 hours",−1.6
same,log2FC IKZF1,"[1]; 10 micromolar, 8 hours",−2.1
same,log2FC CCNA2,"[1]; 10 micromolar, 24 hours",−1.1
same,log2FC CSNK1A1,"[1]; 10 micromolar, 24 hours",−1.4
same,log2FC IKZF1,"[1]; 10 micromolar, 24 hours",−2.4
same,log2FC SERPINH1,"[1]; 10 micromolar, 24 hours",1.1
same,log2FC ZFP91,"[1]; 10 micromolar, 24 hours",−1.4
same,log2FC ARHGAP18,"[1]; 10 micromolar, 72 hours",1.0
same,log2FC CASS4,"[1]; 10 micromolar, 72 hours",1.0
same,log2FC CORO1B,"[1]; 10 micromolar, 72 hours",1.4
same,log2FC CSNK1A1,"[1]; 10 micromolar, 72 hours",−1.5
same,log2FC CYTL1,"[1]; 10 micromolar, 72 hours",−1.2
same,log2FC DAB2,"[1]; 10 micromolar, 72 hours",1.3
same,log2FC HSPB1,"[1]; 10 micromolar, 72 hours",1.5
same,log2FC IKZF1,"[1]; 10 micromolar, 72 hours",−2.4
same,log2FC ITM2C,"[1]; 10 micromolar, 72 hours",−1.2
same,log2FC PPFIBP1,"[1]; 10 micromolar, 72 hours",1.2
same,log2FC SERP1NH1,"[1]; 10 micromolar, 72 hours",1.7
same,log2FC YEATS2,"[1]; 10 micromolar, 72 hours",2.5
same,log2FC ZFP91,"[1]; 10 micromolar, 72 hours",−1.1
same,down-regulation of Ikaros,"[1]; 72 hrs, most down-regulated protein",about 5 fold
same,down-regulation of CSNK1A1,"[1]; 72 hrs, second most down-regulated protein",about 3 fold
same,IRF4 levels,"[2]; DLBCL cell lines, 1 μM or 10 μM, within 72 hours",reduce
same,Aiolos levels,"[2]; Karpas 422 (GCB) and TMD8 (ABC), 10 μM, 1, 6 or 12 hours, vs DMSO",decrease
same,Aiolos and Ikaros levels,"[2]; WSU-DLCL2 (GCB) and OCI-LY10 (ABC), 10 μM, 1, 6 or 12 hours, vs DMSO",decreasing
same,CRBN levels,"[2]; nine GCB and ABC DLBCL cell lines, 1 μM or 10 μM, 72 hours",remained constant
same,Aiolos and Ikaros levels,"[2]; nine GCB and ABC DLBCL cell lines, 1 μM or 10 μM, 72 hours, vs DMSO",decreasing
same,sensitivity of ABC DLBCL cell lines,[3],sensitive
same,sensitivity of GCB cell lines,[3],less sensitive
same,effect on CSNK1A1 protein,ABC-DLBCL cell line,decreases
same,"IFIT1, IFIT3, DDX58, XAF1, IFIH1, and OAS3 protein expression",IFN pathway; FIG. 13A,upregulates
same,"DDX58, IFI27, IFIT1, IFIT3, DDX58, and XAF1 gene expression",IFN pathway; FIG. 13B,upregulates
same,ISG15 and OAS3 gene expression,IFN pathway; FIG. 13C,upregulates
same,IRF changes,IFN pathway; FIG. 13E,induces
same,IFIT1 and IFIT3 protein expression,IFN pathway; FIG. 13F,upregulates
same,IKKE protein level,IFN pathway; FIG. 13F,reduces
same,TBK1 phosphorylation (TBK1-PO4),IFN pathway; FIG. 13F,upregulates
same,levels of STAT or phosphorylated STAT,IFN pathway; FIG. 13G,induces changes
same,EC50,"HNT-34; 96 h, HNT-34, 4 d BrdU",600 nM
same,sensitivity of HNT-34 cells,HNT-34; FIG. 22B,sensitive
same,EC50,"MDS-L; 96 h, MDS-L, 4 d BrdU",1500 nM
same,sensitivity of MDS-L cells,MDS-L; FIG. 22B,sensitive
same,EC50,[4],> 10000 nM
same,patients with both CSNK1A1 and Ikaros modulated (down-regulated),"CSNK1A1, Ikaros",4 of 5
same,CSNK1A1 and Ikaros proteins levels,"CSNK1A1 (CK1α), Ikaros",decreased
